In assay [1] the test system is RPMI 8226.x1 multiple myeloma xenografts. In words: RPMI 8226.x1 multiple myeloma xenograft. The class given is in vivo, SCID Beige mice. How it is done:
(§1) The efficacy of the combinations of the invention may be measured in vivo by implanting allografts or xenografts of cancer cells in rodents and treating the tumor-bearing animals with the combinations. Variable results are to be expected depending on the cell line, the presence or absence of certain mutations in the tumor cells, the sequence of administration of a formula I compound and chemotherapeutic agent, dosing regimen, and other factors. Subject mice were treated with drug(s) or control (Vehicle) and monitored over several weeks or more to measure the time to tumor doubling, log cell kill, and tumor inhibition.
Dosing of all cohorts commenced on Day 0 when the mean tumor volume of all cohorts was between about 100 to 200 cubic millimeters.

For assay [2], the system named is prostate cancer cell line PC3. In words: Cell Titer Glo proliferation and survival assay, PC3. Format: cell-based. The following applies: PC3, FIG. 5. The source says: The results obtained here are representative of a subset of prostate cell lines tested.
Background: Cellular ATP, detected with luciferase, serves as a proxy for viable cell number.

For assay [3], the target named is BaF3 PIM1 cells (Homo sapiens, UniProt P11309). In words: BaF3 PIM1 cell proliferation (Cell Titer Glo). The class given is cell-based.
Chain of BaF3 PIM1 cells (P11309 whole entry, change not shown): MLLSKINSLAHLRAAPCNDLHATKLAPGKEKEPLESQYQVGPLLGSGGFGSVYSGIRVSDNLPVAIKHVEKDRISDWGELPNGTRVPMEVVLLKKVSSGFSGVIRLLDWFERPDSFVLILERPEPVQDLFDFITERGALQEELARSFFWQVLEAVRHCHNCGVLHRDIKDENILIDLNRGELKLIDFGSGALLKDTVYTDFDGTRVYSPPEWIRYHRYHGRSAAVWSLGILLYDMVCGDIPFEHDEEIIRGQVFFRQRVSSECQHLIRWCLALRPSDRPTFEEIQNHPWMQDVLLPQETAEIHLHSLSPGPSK
Assay [4] relates to BaF3 parental cells. Description: BaF3 parental cell proliferation (Cell Titer Glo). The class given is cell-based. The following applies: Mus musculus, Table 3. How it is done:
BaF3 parental line was obtained from the DSMZ repository. BaF3 lines transfected with PIM1 or PIM2 were generated. Mouse IL-3 was purchased from R&D Systems. G418 was purchased from Clontech. Media for BaF3 parental line contained RPMI, 10% FBS, 2 mM L-Glutamine, 2 ng/mL mIL-3. Media for BaF3 PIM1 & 2 lines contained RPMI, 10% FBS, 2 mM L-Glutamine, […]. Media for MM1.S line contained RPMI, 10% FBS, 2 mM L-Glutamine.
BaF3 parental cells, BaF3 PIM1 cells, BaF3 PIM2 cells, and MM1.S cells were seeded at 2 k/well, 5 k/well, 5 k/well, and 10 k/well respectively, in a 384-well plate, at 45 μL/well. Test compound was added at 5 μL/well. BaF3 cells (parental and transfected) were incubated overnight, while MM1.S cells were incubated for 72 hours at 37° C., 5% CO2. Cell Titer Glo Reagent (Promega) was added at 50 μL/well, the plates were incubated for 30 minutes, and their luminescence read on an HT Analyst. IC50/EC50 values for the test compound were calculated.

Assay [5] has as its system bone marrow aspirate samples from multiple myeloma patients. In words: Primary cancer cell isolates from bone marrow aspirates, apoptosis. Format: cell-based, human. The following applies: 0.3 or 1.0 micromolar; two of four cases. How it is done:
Shown in FIG. 2 are a summary of Combination Index values for Compound 3 in combination with different agents. The values shown were calculated at the ED50 of the dose response curves which were similar in nature to those exemplified in FIG. 1. Each dot in the plot represents the test results obtained with a different multiple myeloma cell line with a different combination of test agents, including Compound 3 plus a second agent as labeled on the abscissa. The horizontal line on the plot itself indicates the mean of all CI values for a given test agent. Combinations of Compound 3 with clinical standard of care chemotherapeutic agents including dexamethasone, lenalidomide, bortezomib, and melphalan produced variable results wherein CI values between about 0.1 and about 1 were obtained, with means generally greater than about 0.5. Compared to these clinically active agents, unexpectedly uniform and unexpectedly potent combination test results were obtained for Compound 3 in combination with Formula A, in which the majority of calculated CI values were less than about 0.2 and the mean across all cancer cell lines tested was about 0.2. In addition to these findings, bone marrow aspirate samples from multiple myeloma patients […] to test Formula A and Compound 3 singly and in combination on these primary cancer cell isolates.

Assay [6] has as its system MM1.s multiple myeloma xenografts. In words: MM1.s multiple myeloma xenograft. The following applies: Compound 3 50 mg/kg po qd, day 18 vs vehicle. Format: in vivo, SCID mice. How it is done:
as §1
Dosing of all cohorts commenced on Day 0 when the mean tumor volume of all cohorts was between about 200 to 300 cubic millimeters. […] Formula A was tested at as a single agent at a single dose level of 75 mg/kg for which a lesser TGI was obtained at day 18.

Assay [7] concerns OPM-2 multiple myeloma xenografts. In words: OPM-2 multiple myeloma xenograft. The class given is in vivo, SCID Beige mice. The following applies: Compound 3 50 mg/kg po qd x21, day 23 vs vehicle. The method, then:
as §1
Dosing of all cohorts commenced on Day 0 when the mean tumor volume of all cohorts was between about 100 to 200 cubic millimeters. […] Formula A was tested at as a single agent at a single dose level of 75 mg/kg for which a similar TGI was obtained at day 23.

In assay [8] the test system is syngeneic A20 lymphoma tumors. In words: Syngeneic A20 lymphoma tumor model. Format: in vivo, Balb/c mice. The following applies: Compound 3 25 and 50 mg/kg or Formula A 75 mg/kg po qd x21. The method, then:
The efficacy of the combinations of the invention may be measured in vivo by implanting allografts or xenografts of cancer cells in rodents and treating the tumor-bearing animals with the combinations. […] Subject mice were treated with drug(s) or control (Vehicle) and monitored over several weeks or more to measure the time to tumor doubling, log cell kill, and tumor inhibition.
Dosing of all cohorts commenced on Day 0 when the mean tumor volume of all cohorts was between […]. […] At the conclusion of this study, femurs were collected and histological analysis of the bone marrow was conducted, and peripheral blood was collected for determination of blood cell counts.

The test system of assay [9] is EOL-1. In words: EOL-1 cell assay. Format: cell-based. The following applies: Homo sapiens, EOL1; Table 3.
Assay [10] has as its system multiple myeloma cell line KMS11. Description: Cell Titer Glo proliferation and survival assay, KMS11 and other multiple myeloma cell lines. The class given is cell-based. The following applies: Homo sapiens, KMS-11; single agent; ten multiple myeloma cell lines tested; read-out: IC50 against myeloma cell lines, single agent. The source says: The results obtained here are representative of a total of ten multiple myeloma cell lines tested.

Assay [11] relates to MM1.S cells. Description: MM1.S cell proliferation, 72 hours (Cell Titer Glo). The class given is cell-based. The following applies: Homo sapiens. The method in brief:
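BaF3 parental cells (2 k/well, with 2 ng/mL mIL-3) were treated overnight, and MM1.S cells (10 k/well) were treated for 72 h at 37 °C. Viability was read by CellTiter-Glo luminescence. IC50/EC50 values were calculated from the luminescence data.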

This note sets out measurements from patent US8435976B2, “4-substituted pyridin-3-yl-carboxamide compounds and methods of use” (F. Hoffmann-La Roche, priority 2009, dated 2013).

Like-named read-outs stand apart in the source and are kept apart here.

By IC50 is commonly meant the concentration that gives 50% inhibition.

Regarding `Nc1sc(-c2c(F)cccc2F)nc1C(=O)Nc1cnccc1N1CCC[C@H](N)C1` [Example 3, (S)-5-amino-N-(4-(3-aminopiperidin-1-yl)pyridin-3-yl)-2-(2,6-difluorophenyl)thiazole-4-carboxamide], the “effect on tumor growth at the lowest dose” value in assay [1] (Compound 3 5 mg/kg po qd x21) is “trend toward accelerated tumor growth, though this trend was not statistically significant”. Also, the “tumor growth inhibition (TGI)” value in [1] (Compound 3 50 mg/kg po qd x21, day 27 vs vehicle) is given as “about 70%”; in assay [6], “about 60%”; in [7], “about 45%”. The “single agent activity, PC3” value in assay [2] was “little activity”. The GI50 in assay [3] (Table 3, read-out: BaF3-Pim1) was found to be 10 nM; in assay [3] (incubated overnight, read-out: Prolif BaF3_PIM1 (IC50)), 13.5 nM. Besides, the values for the IC50 in assay [4], in assay [9] and in assay [10] were 8000 nM, 10 nM and 100 to 500 nM, respectively. The “activity on primary cancer cell isolates” value in assay [5] is recorded as “only limited single agent activity”. In addition, the “effect on tumor growth, single agents” value in assay [8] is listed as “no significant effect on tumor growth”. Further, the EC50 was found to be 49.7 nM in [11] (72 hours, read-out: Prolif MM1S ATP (EC50)) and 200 nM in assay [11] (Table 3, read-out: MM1.s).
